From US10314307B2, “(S)-abscisic acid derivatives for improving plant stress tolerance” (Valent BioSciences Corporation, priority 2015, dated 2019)

What was measured:
Assay type in all cases: in vivo
[1] = tested on: corn plants, 111 day, central corn belt variety; experiment: Corn plant chilling (growth rate); settings: for Growth during stress recovery following cold: 3′-propargyl-(S)-ABA particularly between 11.4 and 113.7 g/acre, S-ABA at rates up to 1000 mg/liter (113.7 g/acre); for Maintenance of growth under cold (10° C.) conditions: S-ABA even at 1000 mg/l (113.7 g/acre); for Growth Rate, Greenhouse 7-9 d post spray: after chilling; for Growth Rate, Greenhouse 0-2 d post spray: before chilling; for Growth Rate, Growth Chamber 10° C. 2-7 d post spray: during chilling at 10° C.
Experimental: Corn seeds of a 111 day, central corn belt variety were planted in 2-quart pots filled with medium. After the corn grew for 10 days in the greenhouse at 24±3° C. (V2 to V3 growth stage), the plants received a foliar spray application of aqueous solutions of the test compounds containing 0.25% non-ionic surfactant with a volume equivalent to 30 gallons/acre. After spraying, plants were moved back to the greenhouse for 2 days, then moved to a growth chamber kept at 10° C. with a 16:8 light:dark cycle (cold treatment). After 5 days in the cold, plants were returned to the greenhouse for 2 days before being harvested destructively. Results of the studies comparing the growth rate of plants treated with S-ABA with 3′-methyl-(S)-ABA during the experiment are shown in Table 3. In additional studies, the effect of S-ABA and 3′-propargyl-(S)-ABA on corn growth rate in chilling studies was compared.

soybean plants = experiment: Soybean drought tolerance (stomatal conductance)
Experimental: In this study, soybean plants were grown for 10 days under ambient lab temperature conditions and illumination of 150 umol m^2 s^−1 and a 16:8 photoperiod. At spraying, the primary leaves were fully expanded and the first trifoliate leaves were partially expanded. The plants were sprayed to dampness with solutions of water, S-ABA, 3′-methyl-(S)-abscisic acid, or 3′-propargyl-(S)-abscisic acid containing 0.025% (v/v) non-ionic surfactant. At times following spraying, the conductance of the primary leaves was measured using an AP4 porometer (Delta T Devices, Cambridge, UK) to evaluate the effect on stomatal conductance. A decrease in stomatal aperture, reflected in the conductance measures, is an immediate and direct effect of applied S-ABA. To simplify the data, the controls were always set to 100%. In Table 9, the effect of spray applications on the stomatal conductance was measured.

[2] = tested on: corn plants, commercial 111 day, central corn belt variety; experiment: Corn stomatal conductance; settings: for Average Stomatal Conductance (% of Control), 6 DAS: 6 days after spraying; for Average Stomatal Conductance (% of Control), 16 DAS: 16 days after spraying
Experimental: In this greenhouse experiment, foliar spray treatments containing 3′-methyl-(S)-abscisic acid, 3′-propargyl-(S)-abscisic acid or (S)-abscisic acid were applied to corn plants to evaluate their effect on gas exchange, as measured through stomatal conductance. Corn plants of a commercial, 111 day, central corn belt variety were grown in the greenhouse under optimal conditions for five weeks and were size-matched into ten groups of five plants. Using an aerosol sprayer, each group was sprayed to drip (25 milliliters per plant) with solutions containing a non-ionic surfactant (0.125%, v/v) and water (control), 2.5 mg, 7.5 mg or 25 mg/plant 3′-methyl-(S)-abscisic acid, or 2.5 mg, 7.5 mg or 25 mg/plant 3′-propargyl-(S)-abscisic acid, or 7.5 mg, 25 mg or 75 mg/plant (5)-ABA, respectively. After spraying, plants were returned to the greenhouse for the duration of the experiment. Stomatal conductance was measured using an AP4 porometer (Delta T Devices, Cambridge, UK) and the conductance for each plant was recorded at approximately the same time of day (˜10 AM) prior to treatment application as well as 1, 2, 5, 6, 9 and 16 days post-spraying.

[3] = tested on: corn seed of a common inbred parental line; experiment: Corn plant emergence after seed treatment; settings: for Delay in Median Emergence Time Compared to Control / Median Time to Emergence: 20.5° C.
Experimental: Corn seed of a common inbred parental line were treated using standard seed treatment equipment with water (control), 40 μg, 80 μg or 160 μg/seed S-ABA, 10 μg, 20 μg, 40 μg or 80 μg/seed 3′-methyl-(S)-abscisic acid, or 10 μg, 20 μg, 40 μg or 80 μg/seed 3′-propargyl-(S)-abscisic acid. Post treatment, the seeds were planted in 12×3×2″ plastic boxes containing one kilogram of sieved, pre-moistened field soil. Fifty seeds were planted in each box at three centimeter depth and two replicate boxes per treatment at 20.5° C. under constant illumination. Two replications of the experiment were incubated under constant light in a 20.5° C. growth chamber. Emergence counts were recorded almost daily until seedling emergence had ceased (42 days). Daily counts were converted to proportions of the final emergence to estimate the median emergence time for each box.

[4] = Table 4 study, foliar spray 30 mg/l (3.4 g/acre)
[5] = Table 4 study, foliar spray 100 mg/l (11.4 g/acre)
[6] = Table 4 study, foliar spray 300 mg/l (34.1 g/acre)
[7] = Table 4 study, foliar spray 1000 mg/l (113.7 g/acre)
[8] = foliar spray 300 mg/l, 0.3 mg/plant
[9] = foliar spray 100 ppm or 2.5 mg/plant
[10] = foliar spray 300 ppm or 7.5 mg/plant
[11] = foliar spray 1000 ppm or 25 mg/plant
[12] = Table 3 study, foliar spray 1000 mg/l (113.7 g/acre)
[13] = foliar spray 1000 mg/l, 1.0 mg/plant
[14] = foliar spray 3000 ppm or 75 mg/plant

| SMILES | Growth during stress recovery following cold [1] | Maintenance of growth under cold (10° C.) conditions [1] | Growth Rate, Greenhouse 7-9 d post spray [1, 7] | Growth Rate, Greenhouse 0-2 d post spray [1, 7] | Growth Rate, Growth Chamber 10° C. 2-7 d post spray [1, 7] | Reduction in stomatal conductance at 1 day post spraying (soybean plants; 300 mg/l foliar spray) | Percent Conductance (stomatal conductance, control = 100%), Day 1 (soybean plants; [8]) | Percent Conductance (stomatal conductance, control = 100%), Day 2 (soybean plants; [8]) | Percent Conductance (stomatal conductance, control = 100%), Day 5 (soybean plants; [8]) | Percent Conductance (stomatal conductance, control = 100%), Day 6 (soybean plants; [8]) | Percent Conductance (stomatal conductance, control = 100%), Day 7 (soybean plants; [8]) | Average Stomatal Conductance (% of Control), 6 DAS [2, 10] | Average Stomatal Conductance (% of Control), 16 DAS [2, 10] | Average Stomatal Conductance (% of Control), 6 DAS [2, 11] | Average Stomatal Conductance (% of Control), 16 DAS [2, 11] | Delay in Median Emergence Time Compared to Control ([3]; seed treatment 40 μg/seed) | Median Time to Emergence ([3]; seed treatment 40 μg/seed) | Delay in Median Emergence Time Compared to Control ([3]; seed treatment 80 μg/seed) | Median Time to Emergence ([3]; seed treatment 80 μg/seed) | further results |
| --- | --- | --- | --- | --- | --- | --- | --- | --- | --- | --- | --- | --- | --- | --- | --- | --- | --- | --- | --- | --- |
| C#CCC1=C(C)[C@](O)(/C=C/C(C)=C\C(=O)O)C(C)(C)CC1=O [3′-propargyl-(S)-ABA, (2Z,4E)-5-((S)-1-hydroxy-2,6,6-trimethyl-4-oxo-3-(prop-2-yn-1-yl)cyclohex-2-en-1-yl)-3-methylpenta-2,4-dienoic acid] | did aid growth during stress recovery | did not maintain growth under cold stress | 2.300 cm/day | 2.172 cm/day | 0.787 cm/day | 92% | 8% | 14% | 33% | 52% | 57% | 74.3 % of Control | 77.9 % of Control | 56.0 % of Control | 59.0 % of Control | 16.2 days | 21.0 days | 22.4 days | 27.3 days | Growth Rate, Greenhouse 7-9 d post spray [1, 4]: 1.978 cm/day; Growth Rate, Greenhouse 0-2 d post spray [1, 4]: 3.239 cm/day; Growth Rate, Growth Chamber 10° C. 2-7 d post spray [1, 4]: 1.258 cm/day; Growth Rate, Greenhouse 7-9 d post spray [1, 5]: 2.489 cm/day; Growth Rate, Greenhouse 0-2 d post spray [1, 5]: 2.294 cm/day; Growth Rate, Growth Chamber 10° C. 2-7 d post spray [1, 5]: 1.173 cm/day; Growth Rate, Greenhouse 7-9 d post spray [1, 6]: 2.500 cm/day; Growth Rate, Greenhouse 0-2 d post spray [1, 6]: 2.544 cm/day; Growth Rate, Growth Chamber 10° C. 2-7 d post spray [1, 6]: 1.033 cm/day; Average Stomatal Conductance (% of Control), 6 DAS [2, 9]: 80.6 % of Control; Average Stomatal Conductance (% of Control), 16 DAS [2, 9]: 87.7 % of Control; Relative potency resulting in a 25% reduction in transpiration, times that seen with S-ABA ([2]; regression of the data in Table 5): 4.83 times; Additional delay in emergence in comparison with S-ABA ([3]; 80 μg/seed rate): 14.3 calendar days; Relative potency of S-ABA, dose required to delay the median emergence time by two days ([3]; regression): 2.6 times; Delay in Median Emergence Time Compared to Control ([3]; seed treatment 10 μg/seed): 8.6 days; Median Time to Emergence ([3]; seed treatment 10 μg/seed): 13.4 days; Delay in Median Emergence Time Compared to Control ([3]; seed treatment 20 μg/seed): 11.3 days; Median Time to Emergence ([3]; seed treatment 20 μg/seed): 16.2 days |
| CC1=CC(=O)CC(C)(C)[C@@]1(O)/C=C/C(C)=C/C(=O)O [S-ABA, (S)-abscisic acid] | did not aid recovery growth | did not maintain growth | 2.161 cm/day | 3.156 cm/day | 1.249 cm/day | 58% | 42% | 56% | 80% | 108% | 122% | 88.5 % of Control | 89.3 % of Control | 83.7 % of Control | 88.0 % of Control | 5.6 days | 10.5 days | 8.2 days | 13.0 days | Growth Rate, Greenhouse 7-9 d post spray [1, 12]: 3.270 cm/day; Growth Rate, Greenhouse 0-2 d post spray [1, 12]: 4.315 cm/day; Growth Rate, Growth Chamber 10° C. 2-7 d post spray [1, 12]: 0.766 cm/day; Leaf area ([1]; in one of two studies, not repeatable across studies, 3′-methyl-(S)-abscisic acid at 30, 100 and 300 mg/liter): increased; Time of 50% recovery of the control conductance (soybean plants; 300 mg/l foliar spray): ≤ 2 days; Time of greater than 50% recovery of the control conductance (soybean plants; 1000 mg/l foliar spray): 5 days; Percent Conductance (stomatal conductance, control = 100%), Day 1 (soybean plants; [13]): 27%; Percent Conductance (stomatal conductance, control = 100%), Day 2 (soybean plants; [13]): 32%; Percent Conductance (stomatal conductance, control = 100%), Day 5 (soybean plants; [13]): 58%; Percent Conductance (stomatal conductance, control = 100%), Day 6 (soybean plants; [13]): 80%; Percent Conductance (stomatal conductance, control = 100%), Day 7 (soybean plants; [13]): 118%; Average Stomatal Conductance (% of Control), 6 DAS [2, 14]: 61.3 % of Control; Average Stomatal Conductance (% of Control), 16 DAS [2, 14]: 62.5 % of Control; Delay in Median Emergence Time Compared to Control ([3]; seed treatment 160 μg/seed): 9.7 days; Median Time to Emergence ([3]; seed treatment 160 μg/seed): 14.6 days |
